What follows are compounds tested against human PDE10A2 (Homo sapiens (Human), UniProt Q9Y233) (assay: PDE10 fluorescence polarization (IMAP FP) inhibition assay). Details: apparent inhibition constant, FAM-labeled cAMP substrate 50 nM, room temperature.
Sequence of human PDE10A2 (Q9Y233 267-1055): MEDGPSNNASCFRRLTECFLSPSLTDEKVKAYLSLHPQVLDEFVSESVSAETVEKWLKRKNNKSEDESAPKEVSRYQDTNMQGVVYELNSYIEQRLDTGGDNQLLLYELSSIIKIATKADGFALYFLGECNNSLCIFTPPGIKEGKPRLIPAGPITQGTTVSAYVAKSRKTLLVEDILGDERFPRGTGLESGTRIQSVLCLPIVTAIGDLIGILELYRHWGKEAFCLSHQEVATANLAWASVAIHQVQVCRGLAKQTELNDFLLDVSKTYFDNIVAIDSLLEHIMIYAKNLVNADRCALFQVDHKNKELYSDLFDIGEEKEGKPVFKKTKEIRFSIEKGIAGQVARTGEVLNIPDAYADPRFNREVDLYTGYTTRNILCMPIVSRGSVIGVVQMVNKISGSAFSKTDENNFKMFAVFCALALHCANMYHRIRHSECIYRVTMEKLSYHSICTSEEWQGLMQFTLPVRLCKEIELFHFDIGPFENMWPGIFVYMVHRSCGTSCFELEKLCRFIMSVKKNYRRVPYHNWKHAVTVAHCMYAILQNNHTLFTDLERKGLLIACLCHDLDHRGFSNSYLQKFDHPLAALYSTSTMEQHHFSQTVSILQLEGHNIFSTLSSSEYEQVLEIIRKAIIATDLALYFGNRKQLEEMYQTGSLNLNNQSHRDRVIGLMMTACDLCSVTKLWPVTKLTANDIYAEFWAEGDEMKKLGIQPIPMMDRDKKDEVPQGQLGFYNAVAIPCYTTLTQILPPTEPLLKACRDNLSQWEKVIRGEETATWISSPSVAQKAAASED
Assay type: biochemical
How it was run: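 Cytoplasmic lysate of AD293 cells transiently expressing human PDE10A2, enzyme preincubated 60 min at room temperature with compounds (1% DMSO), then 50 nM FAM-cAMP added for 60 min. Buffer 10 mM Tris HCl pH 7.2, 10 mM MgCl2, 1 mM DTT; IMAP binding reagent stop, FP read after ≥1 h.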
Compound `Cc1cn(-c2cc(N3CC(c4nc5ccccc5n4C)C3)nc(C3CC3)n2)nn1` [Example 32, 2-(1-(2-cyclopropyl-6-(4-methyl-1H-1,2,3-triazol-1-yl)pyrimidin-4-yl)azetidin-3-yl)-1-methyl-1H-benzo[d]imidazole] has a Ki of 1.1 nM.
`Cc1nc(N2CC(c3nc4cccc(F)c4n3C)C2)cc(-n2nc(C)nc2C)n1` [Example 123, 2-(1-(6-(3,5-dimethyl-1H-1,2,4-triazol-1-yl)-2-methylpyrimidin-4-yl)azetidin-3-yl)-7-fluoro-1-methyl-1H-benzo[d]imidazole] showed a Ki of 7.1 nM.
Compound `Cc1nc(N2CC(c3nc4ccccc4n3CCO)C2)cc(-n2nc(C)nc2C)n1` [Example 117, 2-(2-(1-(6-(3,5-dimethyl-1H-1,2,4-triazol-1-yl)-2-methylpyrimidin-4-yl)azetidin-3-yl)-1H-benzo[d]imidazol-1-yl)ethanol] has a Ki of 6.6 nM.
`Cc1nc(N2CC(c3nc4ccccc4[nH]3)C2)cc(-n2nc(C)nc2C)n1` [Example 107, 2-(1-(6-(3,5-Dimethyl-1H-1,2,4-triazol-1-yl)-2-methylpyrimidin-4-yl)azetidin-3-yl)-1H-benzo[d]imidazole] showed a Ki of 5.8 nM.
In the case of `Cc1cnn(-c2cc(N3CC(c4nc5ccccc5n4C)C3)nc(C(F)(F)F)n2)c1` [Example 5, 1-methyl-2-(1-(6-(4-methyl-1H-pyrazol-1-yl)-2-(trifluoromethyl)pyrimidin-4-yl)azetidin-3-yl)-1H-benzo[d]imidazole], the Ki is reported as 1.2 nM.
In the case of `Cc1nc(N2CC(c3nc4ccccc4n3C)C2)cc(-n2cc(C#N)cn2)n1` [Example 17, 1-(2-methyl-6-(3-(1-methyl-1H-benzo[d]imidazol-2-yl)azetidin-1-yl)pyrimidin-4-yl)-1H-pyrazole-4-carbonitrile], the Ki is reported as 4.2 nM.
For `CCCn1c(C2CN(c3cc(-n4nc(C)nc4C)nc(C)n3)C2)nc2ccccc21` [Example 118, 2-(1-(6-(3,5-dimethyl-1H-1,2,4-triazol-1-yl)-2-methylpyrimidin-4-yl)azetidin-3-yl)-1-propyl-1H-benzo[d]imidazole], the Ki was 13 nM.
Work on `Cc1nc(N2CC(c3nc4cccc(F)c4[nH]3)C2)cc(-n2nc(C)nc2C)n1` [Example 108, 2-(1-(6-(3,5-dimethyl-1H-1,2,4-triazol-1-yl)-2-methylpyrimidin-4-yl)azetidin-3-yl)-7-fluoro-1H-benzo[d]imidazole] yielded a Ki of 19 nM.
For `COCc1nc(C)nn1-c1cc(N2CC(c3nc4ccccc4n3C)C2)nc(C2CC2)n1` [Example 65, 2-(1-(2-cyclopropyl-6-(5-(methoxymethyl)-3-methyl-1H-1,2,4-triazol-1-yl)pyrimidin-4-yl)azetidin-3-yl)-1-methyl-1H-benzo[d]imidazole], the Ki was 2.5 nM.
With `Cc1nc(N2CC(c3nc4ccccc4n3C)C2)cc(-n2nc(C)nc2C)n1` [Example 1, 2-(1-(6-(3,5-dimethyl-1H-1,2,4-triazol-1-yl)-2-methylpyrimidin-4-yl)azetidin-3-yl)-1-methyl-1H-benzo[d]imidazole] the Ki was 2.1 nM.
`Cc1nc(-c2cccnc2)cc(N2CC(c3nc4ccccc4n3C)C2)n1` [Example 81, 1-methyl-2-(1-(2-methyl-6-(pyridin-3-yl)pyrimidin-4-yl)azetidin-3-yl)-1H-benzo[d]imidazole] gave a Ki of 76 nM.
`Cc1nc(-c2ccccc2)cc(N2CC(c3nc4ccccc4n3C)C2)n1` [Example 88, 1-methyl-2-(1-(2-methyl-6-phenylpyrimidin-4-yl)azetidin-3-yl)-1H-benzo[d]imidazole] was tested, and the Ki was 63 nM.
Compound `CCOC(=O)Cc1nc(C)nn1-c1cc(N2CC(c3nc4ccccc4n3C)C2)nc(C)n1` [Example 44, ethyl 2-(3-methyl-1-(2-methyl-6-(3-(1-methyl-1 benzo[d]imidazol-2-yl)azetidin-1-yl)pyrimidin-4-yl)-1H-1,2,4-triazol-5-yl)acetate] has a Ki of 2.6 nM.
`Cc1nc(N2CC(c3nc4ccccc4n3C)C2)cc(-n2nc(C)nc2-c2cccnc2)n1` [Example 52, 1-methyl-2-(1-(2-methyl-6-(3-methyl-5-(pyridin-3-yl)-1H-1,2,4-triazol-1-yl)pyrimidin-4-yl)azetidin-3-yl)-1H-benzo[d]imidazole] gave a Ki of 7.5 nM.

Source: patent US9365562B2, “1,3 substituted azetidine PDE10 inhibitors” (Merck Sharp & Dohme Corp., priority 2011, dated 2016)
